Values quoted from earlier work in patent US6352979B1, “Method of treating snakebite and complications resulting therefrom” (priority 2001, dated 2002).

Legend:
[1] = system: mice; details: doses higher than 3750 mg/kg (accepted oral LD50 for common table salt)
[2] = system: humans; details: doses exceeding 40 g/m^2
[3] = system: dogs; details: doses higher than 3750 mg/kg (accepted oral LD50 for common table salt)

## O=S(=O)([O-])CCSSCCS(=O)(=O)[O-].[Na+].[Na+] [Dimesna, disodium 2,2′-dithiobis ethane sulfonate]
[1]
  adverse effects after intravenous administration: no adverse effects
[2]
  adverse effects after administration to humans: no adverse effects
[3]
  adverse effects after intravenous administration: no adverse effects

## [Cl-].[Na+] [common table salt]
other
  accepted oral LD50: 3750 mg/kg
